According to patent US20020137929A1, “1 - (3-heterocyclylphenyl) isothiourea, -isourea, -guanidine and -amidine herbicidal agents” (Intellectual Property Department, BASF Aktiengesellschaft, priority 1998, published 2002):

Legend:
MOOVA (Monochoria) = assay: Preemergence weed control under flooded paddy conditions; format: in vivo, Monochoria vaginalis; conditions: rated 3-4 weeks after treatment
Procedure: (§1) Results of herbicide evaluation are expressed on a rating scale (0-9). The scale is based upon a visual observation of plant stand, vigor, malformation, size, chlorosis and overall plant appearance as compared with a control.
(§2) Preemergence herbicidal activity under flooded paddy conditions is determined as follows: plant seeds or propagating organs are planted in the top 0.5 cm of silt loam soil in 32 oz. plastic containers with a diameter of 10.5 cm and no drainage holes. Water is added to these containers and maintained at 1.5 to 3 cm above the soil surface for the duration of the experiment. The test compounds are applied as aqueous/acetone mixtures 50/50 v/v pipetted directly into the flood water to give the equivalent of about 0.0313 to 0.500 kg/ha of active ingredient. The treated containers are placed on greenhouse benches and cared for in accordance with conventional greenhouse procedures. Three to four weeks after treatment, the test is terminated and each container is examined and herbicidal effect rated according to the rating system provided in Example 37. The compounds evaluated are reported by compound number given in Example 37.
(§3) Plant species employed in this example are reported by header abbreviation, common name and scientific name.

ABUTH (Velvetleaf) [1] = assay: Preemergence herbicidal evaluation; format: in vivo, Abutilon theophrasti; conditions: 0.2500 kg/ha, rated 4-5 weeks after treatment
Source text: as §1
(§4) The preemergence herbicidal activity of the test compounds of the present invention is exemplified by the following tests in which the seeds of a variety of monocotyledonous and dicotyledonous plants are separately mixed with potting soil and planted on top of approximately one inch of soil in separate pint cups. After planting, the cups are sprayed with the selected aqueous acetone solution containing test compound in sufficient quantity to provide the equivalent of about 0.0156 to 0.500 kg per hectare of test compound per cup. The treated cups are then placed on greenhouse benches, watered and cared for in accordance with conventional greenhouse procedures. From four to five weeks after treatment, the tests are terminated and each cup is examined and rated according to the rating system provided in Example 37.
(§5) The compounds evaluated are reported by compound number given in Example 37.

ORYSAT (Rice, Tebonnet) [2] = assay: Postemergence herbicidal evaluation; format: in vivo, Oryza sativa, (L.) Tebonnet; conditions: postemergence
Procedure: (§6) In the tests, seedling plants are grown in jiffy flats for about two weeks. The test compounds are dispersed in 50/50 acetone/water mixtures containing 0.5% TWEEN®20, a polyoxyethylene sorbitan monolaurate surfactant of Atlas Chemical Industries, in sufficient quantities to provide the equivalent of about 0.0156 kg to 0.500 kg per hectare of active compound when applied to the plants through a spray nozzle operating at 40 psi for a predetermined time. After spraying, the plants are placed on greenhouse benches and are cared for in accordance with conventional greenhouse procedures. From four to five weeks after treatment, the seedling plants are examined and rated according to the rating system set forth below. Where more than one test is involved for a given compound, the data are averaged.
(§7) Plant species employed in these evaluations are reported by header abbreviation, common name and scientific name.
as §1

ORYSAT (Rice, Tebonnet) [3] = assay: Preemergence herbicidal evaluation; format: in vivo, Oryza sativa, (L.) Tebonnet; conditions: 0.2500 kg/ha, rated 4-5 weeks after treatment
Source text: as §1, §4, §5

SETVI (Foxtail, Green) [4] = assay: Postemergence herbicidal evaluation; format: in vivo, Setaria viridis; conditions: postemergence
Procedure: as §6, §7, §1

ZEAMX (Corn, Field) [5] = assay: Postemergence herbicidal evaluation; format: in vivo, Zea mays; conditions: postemergence
Procedure: as §6, §7, §1

GALAP (Galium) [6] = assay: Postemergence herbicidal evaluation; format: in vivo, Galium aparine; conditions: postemergence
Procedure: as §6, §7, §1

CYPIR (Rice Flatsedge) = assay: Preemergence weed control under flooded paddy conditions; format: in vivo, Cyperus iria; conditions: rated 3-4 weeks after treatment
Procedure: as §1, §2, §3

ABUTH (Velvetleaf) [7] = assay: Postemergence herbicidal evaluation; format: in vivo, Abutilon theophrasti; conditions: postemergence
Procedure: as §6, §7, §1

CASOB (Sicklepod) [8] = assay: Postemergence herbicidal evaluation; format: in vivo, Cassia obtusifolia; conditions: postemergence
Procedure: as §6, §7, §1

GALAP (Galium) [9] = assay: Preemergence herbicidal evaluation; format: in vivo, Galium aparine; conditions: 0.2500 kg/ha, rated 4-5 weeks after treatment
Source text: as §1, §4, §5

SETVI (Foxtail, Green) [10] = assay: Preemergence herbicidal evaluation; format: in vivo, Setaria viridis; conditions: 0.2500 kg/ha, rated 4-5 weeks after treatment
Source text: as §1, §4, §5

AMBEL (Ragweed, Common) [11] = assay: Postemergence herbicidal evaluation; format: in vivo, Ambrosia artemisifolia; conditions: postemergence
Procedure: as §6, §7, §1

[12] = test system: ECHORC (Watergrass (Calif.)); assay: Preemergence weed control under flooded paddy conditions; format: in vivo, Echinochloa oryzoides; conditions: rated 3-4 weeks after treatment
Procedure: as §1, §2, §3

[13] = test system: IPOHE (Morningglory, Ivyleaf); assay: Postemergence herbicidal evaluation; format: in vivo, Ipomoea hederacea; conditions: postemergence
Procedure: as §6, §7, §1

ECHCG (Barnyardgrass) [14] = assay: Preemergence herbicidal evaluation; format: in vivo, Echinochloa crus-galli; conditions: 0.2500 kg/ha, rated 4-5 weeks after treatment
Source text: as §1, §4, §5

CYPSE (Flatsedge) = assay: Preemergence weed control under flooded paddy conditions; format: in vivo, Cyperus serotinus; conditions: rated 3-4 weeks after treatment
Procedure: as §1, §2, §3

[15] = test system: TRZAWR (Wheat, Winter, cv Riband); assay: Preemergence herbicidal evaluation; format: in vivo, Triticum aestivum; conditions: 0.2500 kg/ha, rated 4-5 weeks after treatment
Source text: as §1, §4, §5

[16] = test system: GLXMAW (Soybean, Williams); assay: Postemergence herbicidal evaluation; format: in vivo, Glycine max, (L.) Merr. cv Williams; conditions: postemergence
Procedure: as §6, §7, §1

[17] = test system: CHEAL (Lambsquarters, Common); assay: Postemergence herbicidal evaluation; format: in vivo, Chenopodium album; conditions: postemergence
Procedure: as §6, §7, §1

AMBEL (Ragweed, Common) [18] = assay: Preemergence herbicidal evaluation; format: in vivo, Ambrosia artemisifolia; conditions: 0.2500 kg/ha, rated 4-5 weeks after treatment
Source text: as §1, §4, §5

[19] = test system: GLXMAW (Soybean, Williams); assay: Preemergence herbicidal evaluation; format: in vivo, Glycine max, (L.) Merr. cv Williams; conditions: 0.2500 kg/ha, rated 4-5 weeks after treatment
Source text: as §1, §4, §5

[20] = test system: SAGPY (Arrowhead (Pygmaea)); assay: Preemergence weed control under flooded paddy conditions; format: in vivo, Sagittaria pygmaea; conditions: rated 3-4 weeks after treatment
Procedure: as §1, §2, §3

[21] = test system: IPOHE (Morningglory, Ivyleaf); assay: Preemergence herbicidal evaluation; format: in vivo, Ipomoea hederacea; conditions: 0.2500 kg/ha, rated 4-5 weeks after treatment
Source text: as §1, §4, §5

ZEAMX (Corn, Field) [22] = assay: Preemergence herbicidal evaluation; format: in vivo, Zea mays; conditions: 0.2500 kg/ha, rated 4-5 weeks after treatment
Source text: as §1, §4, §5

[23] = test system: CHEAL (Lambsquarters, Common); assay: Preemergence herbicidal evaluation; format: in vivo, Chenopodium album; conditions: 0.2500 kg/ha, rated 4-5 weeks after treatment
Source text: as §1, §4, §5

CASOB (Sicklepod) [24] = assay: Preemergence herbicidal evaluation; format: in vivo, Cassia obtusifolia; conditions: 0.2500 kg/ha, rated 4-5 weeks after treatment
Source text: as §1, §4, §5

[25] = test system: TRZAWR (Wheat, Winter, cv Riband); assay: Postemergence herbicidal evaluation; format: in vivo, Triticum aestivum; conditions: postemergence
Procedure: as §6, §7, §1

ECHCG (Barnyardgrass) [26] = assay: Postemergence herbicidal evaluation; format: in vivo, Echinochloa crus-galli; conditions: postemergence
Procedure: as §6, §7, §1

CCOC(=O)CN1C(=O)CSC1=Nc1cc(N2C(=O)CC(C(F)(F)F)CC2=O)c(F)cc1Cl [Compound 169, Ethyl 2-{{2-chloro-5-[2,6-dioxo-4-(trifluoromethyl)piperidino]-4-fluorophenyl}imino}-4-oxo-3-thiazolidineacetate]
1.0: herbicidal rating ORYSAT (ORYSAT (Rice, Tebonnet) [2]; rate 0.0313 kg/ha) | herbicidal rating CASOB (CASOB (Sicklepod) [8]; rate 0.0313 kg/ha)
7.5: herbicidal rating ZEAMX (ZEAMX (Corn, Field) [5]; rate 0.0313 kg/ha) | herbicidal rating GLXMAW ([16]; rate 0.0625 kg/ha)
6.5: herbicidal rating GLXMAW ([16]; rate 0.0313 kg/ha)
3.0: herbicidal rating CASOB (CASOB (Sicklepod) [8]; rate 0.0625 kg/ha) | herbicidal rating CHEAL ([17]; rate 0.0313 kg/ha) | Preemergence herbicidal rating AMBEL (AMBEL (Ragweed, Common) [18]) | Preemergence herbicidal rating GLXMAW [19] | herbicidal effect rating, SAGPY ([20]; 0.2500 kg/ha) | Preemergence herbicidal rating IPOHE [21]
7.0: herbicidal effect rating, MOOVA (MOOVA (Monochoria); 0.2500 kg/ha) | herbicidal rating TRZAWR ([25]; rate 0.0625 kg/ha) | herbicidal rating ECHCG (ECHCG (Barnyardgrass) [26]; rate 0.0625 kg/ha)
6.0: herbicidal effect rating, MOOVA (MOOVA (Monochoria); 0.0625 kg/ha) | herbicidal effect rating, MOOVA (MOOVA (Monochoria); 0.1250 kg/ha) | herbicidal rating ZEAMX (ZEAMX (Corn, Field) [5]; rate 0.0156 kg/ha) | herbicidal rating TRZAWR ([25]; rate 0.0313 kg/ha)
0.5: herbicidal rating ORYSAT (ORYSAT (Rice, Tebonnet) [2]; rate 0.0156 kg/ha)
4.0: herbicidal rating CHEAL ([17]; rate 0.0625 kg/ha) | Preemergence herbicidal rating CHEAL [23] | herbicidal rating ECHCG (ECHCG (Barnyardgrass) [26]; rate 0.0313 kg/ha)
0.0: Preemergence herbicidal rating ORYSAT (ORYSAT (Rice, Tebonnet) [3]) | herbicidal rating SETVI (SETVI (Foxtail, Green) [4]; rate 0.0156 kg/ha) | herbicidal rating GALAP (GALAP (Galium) [6]; rate 0.0156 kg/ha) | herbicidal rating GALAP (GALAP (Galium) [6]; rate 0.0313 kg/ha) | herbicidal rating GALAP (GALAP (Galium) [6]; rate 0.0625 kg/ha) | herbicidal effect rating, CYPIR (CYPIR (Rice Flatsedge); 0.0313 kg/ha) | herbicidal effect rating, CYPIR (CYPIR (Rice Flatsedge); 0.0625 kg/ha) | herbicidal effect rating, CYPIR (CYPIR (Rice Flatsedge); 0.1250 kg/ha) | herbicidal rating CASOB (CASOB (Sicklepod) [8]; rate 0.0156 kg/ha) | Preemergence herbicidal rating GALAP (GALAP (Galium) [9]) | Preemergence herbicidal rating SETVI (SETVI (Foxtail, Green) [10]) | herbicidal effect rating, ECHORC ([12]; 0.0313 kg/ha) | herbicidal effect rating, ECHORC ([12]; 0.0625 kg/ha) | herbicidal effect rating, ECHORC ([12]; 0.1250 kg/ha) | Preemergence herbicidal rating ECHCG (ECHCG (Barnyardgrass) [14]) | herbicidal effect rating, CYPSE (CYPSE (Flatsedge); 0.0313 kg/ha) | herbicidal effect rating, CYPSE (CYPSE (Flatsedge); 0.1250 kg/ha) | Preemergence herbicidal rating TRZAWR [15] | herbicidal rating CHEAL ([17]; rate 0.0156 kg/ha) | herbicidal effect rating, SAGPY ([20]; 0.0313 kg/ha) | herbicidal effect rating, SAGPY ([20]; 0.0625 kg/ha) | herbicidal effect rating, SAGPY ([20]; 0.1250 kg/ha) | Preemergence herbicidal rating ZEAMX (ZEAMX (Corn, Field) [22]) | Preemergence herbicidal rating CASOB (CASOB (Sicklepod) [24])
9.0: herbicidal rating SETVI (SETVI (Foxtail, Green) [4]; rate 0.0625 kg/ha) | herbicidal rating ABUTH (ABUTH (Velvetleaf) [7]; rate 0.0156 kg/ha) | herbicidal rating ABUTH (ABUTH (Velvetleaf) [7]; rate 0.0313 kg/ha) | herbicidal rating ABUTH (ABUTH (Velvetleaf) [7]; rate 0.0625 kg/ha) | herbicidal rating AMBEL (AMBEL (Ragweed, Common) [11]; rate 0.0156 kg/ha) | herbicidal rating AMBEL (AMBEL (Ragweed, Common) [11]; rate 0.0313 kg/ha) | herbicidal rating AMBEL (AMBEL (Ragweed, Common) [11]; rate 0.0625 kg/ha) | herbicidal rating IPOHE ([13]; rate 0.0156 kg/ha) | herbicidal rating IPOHE ([13]; rate 0.0313 kg/ha) | herbicidal rating IPOHE ([13]; rate 0.0625 kg/ha)
8.5: herbicidal rating ZEAMX (ZEAMX (Corn, Field) [5]; rate 0.0625 kg/ha)
4.5: herbicidal rating TRZAWR ([25]; rate 0.0156 kg/ha)
5.0: herbicidal effect rating, MOOVA (MOOVA (Monochoria); 0.0313 kg/ha) | Preemergence herbicidal rating ABUTH (ABUTH (Velvetleaf) [1]) | herbicidal rating SETVI (SETVI (Foxtail, Green) [4]; rate 0.0313 kg/ha) | herbicidal rating GLXMAW ([16]; rate 0.0156 kg/ha)
2.0: herbicidal rating ORYSAT (ORYSAT (Rice, Tebonnet) [2]; rate 0.0625 kg/ha) | herbicidal effect rating, CYPIR (CYPIR (Rice Flatsedge); 0.2500 kg/ha) | herbicidal effect rating, ECHORC ([12]; 0.2500 kg/ha) | herbicidal rating ECHCG (ECHCG (Barnyardgrass) [26]; rate 0.0156 kg/ha)
